Laboratory results: patent US20080255121A1, “Combination Drug for Treating Autoimmune Disease” (DAINIPPON SUMITOMO PHARMA CO., LTD., priority 2004, published 2008)
Values joined by “and” are separate entries in the source; they are usually repeats but may differ in a detail not shown here. Identical values can stand only once.

Assays:
[1] = system: adjuvant-induced arthritis rats; assay: Combination effect on adjuvant-induced arthritis, joint destruction score by soft X-ray (Example 20); type: in vivo, rat
Protocol: Combination effect for adjuvant-induced arthritic rats was examined in the same manner as in Example 17.
Euthanasia was carried out for all the rats by aspiration of high concentration carbon dioxide after the last administration. Both the hind paws were cut off at the middle point of […]. Both the hind paws were fixed with 10% neutral buffered formalin liquid. […] The degree of joint destruction was recorded with a score. Observed sites were three points of the tibia, calcaneum and tarsal bone, and the possible maximum score was 12.
1: Minimum destruction of joints and bones and new formation of cartilages
2: Mild destruction of joints and bones and new formation and light ossification of cartilages
3: Moderate destruction of joints and bones and ossification
4: Severe destruction and deformation of joints and bones and intense ossification

[2] = system: adjuvant-induced arthritis rats; assay: Adjuvant-induced arthritis, therapeutic and prophylactic model; type: in vivo, rat
Protocol: The adjuvant-induced arthritis model is a representative chronic inflammation model caused in rats, and it is widely used for pharmacological evaluation of antiinflammatory drugs and antirheumatic drugs. Accordingly, effects of Compound (I) and Compound (II) were examined in both therapeutic and prophylactic model. In the therapeutic model, the difference of the volume of a hind leg before and after the dosed period was calculated to examine edema suppression effect by the drug administration and the change of edema volume was examined. In the prophylactic model, the volume of a hind paw was measured over time during the dosed period and the effect of the drug for a long term period was examined. Although the hind paw volume or the edema volume was used as the index of efficacy evaluation, the edema volume means the increment from the normal volume of the hind paw which was not sensitized with the adjuvant, and therefore, the both indices can be used as approximately the same meaning.
A liquid paraffin suspension (1 mg/200 μl) of Mycobacterium butyricum (adjuvant) was subcutaneously injected at the tarsal part of the right hind paw of SD or Lewis rats (both male, six-week old) to cause arthritis. In the therapeutic model, 0.5% methylcellulose suspension of Compound (I) or Compound (II) which was prepared so that the dose was 1 ml per 100 g body weight was orally administered once a day for consecutive five days from the 17th day after the injection of the adjuvant. An indomethacin suspension prepared in the similar way was administered as the positive control. The volume of the hind paws was measured respectively for the right and the left by water replacement method just before the administration and in five hours after the last administration and the difference in the values just before the administration and in five hours after the last administration was calculated and assumed as the change in the edema volume. In the prophylatic model, the compounds were administered once a day for consecutive 21 days after the day when the adjuvant was injected. The volume of the right and left hind paws was measured by water replacement method every other day. In the prophylactic model of Compound (II), a suspension of D-penicillamine, an antirheumatic drug, was administered in the same way as a control.

[3] = system: experimental allergic encephalomyelitis mice; assay: Experimental allergic encephalomyelitis, Compound (I); type: in vivo
Excerpt: The severity of the condition was indicated as a score (disease score) according to the following criteria.
0.5: Slight paralysis of tail
2: Light paralysis of hind paw
3: Medium to intense paralysis of hind paw or light forelimb paralysis
4: Complete paralysis of hind paw or medium to intense paralysis of forelimb
5: Paralysis of four limbs or toward death period
In the prednisolone administered group as a positive control, prednisolone was suspended in 0.5% methylcellulose solution to prepare a liquid of 0.3 mg/ml for administration and 0.1 ml per 10 g mouse weight was orally administered. In a control group, only 0.5% methylcellulose solution was […] administered. The administration was started on the sensitization day and carried out once a day for consecutive 40 days.

[4] = system: adjuvant-induced arthritis rats; assay: Combination effect on adjuvant-induced arthritis (Example 18); type: in vivo, rat; conditions: only Compound (I) 10 mg/kg oral 12 days from day 10
Protocol: Combination effect with Compound (I) and DMARDs (methotrexate) was examined in the same way as in Example 17.
Administration of a DMARD (methotrexate (0.060 mg/kg or 0.045 mg/kg; 0.5% methylcellulose suspension)) to the rat in which adjuvant-induced arthritis was caused in the same way as in Example 17 was started on the day when the adjuvant was injected and continued once a day for consecutive 21 days. Compound (I) (10 mg/kg) was orally administered singly or in combination once a day for consecutive 12 days from the 10 days after the sensitization. The volume of the left hind paw was measured by water replacement method every other day.

[5] = system: collagen-induced arthritis mouse; assay: Collagen-induced arthritis in mice; type: in vivo
Protocol: Efficacy evaluation of Compound (I) was performed using a collagen-induced arthritis in mice as an animal model of rheumatoid arthritis. The collagen-induced arthritis was caused following an ordinary method. That is, 0.1 ml of emulsion was injected to a mouse (DBA/1J, male, Charles River Laboratories Japan) at the base of the tail under etherization as primary immunization. The emulsion was prepared by mixing the same volume of a bovine type II collagen solution (2 mg/ml, Collagen Kenshukai) and Freund Complete Adjuvant (Difco). 0.1 ml of emulsion of the same composition was injected at the base of the tail as booster immunization after three weeks and arthritis was caused. The severity of arthritis was indicated as a score according to the following criteria.
1: Swelling at two or less joints
2: Swelling at three or more joints/Slight redding and edema at limbs
3: Swelling at three or more joints/Moderate redding and edema at limbs
4: Severe redding and edema at limbs/Ankylosis
Evaluation is performed for each limb with 0 to 4 points and therefore the possible maximum score in one individual is 16.
Compound (I) and prednisolone (positive control) were suspended in 0.5% methylcellulose solution and 0.1 ml per 10 g mouse weight was orally administered. In a control group, only 0.5% methylcellulose solution was orally administered. The administration was started with the primary immunization and carried out once a day for consecutive 35 days.

[6] = Dose 20 mg/kg oral once a day 40 days
[7] = Dose 40 mg/kg oral once a day 40 days
[8] = 5 mg/kg oral once a day 35 days

C[C@@H](c1ccc(-c2ccccc2)c(F)c1)c1cc(/N=C(/N)N2CCOCC2)on1 [Compound (I), 3-[(1S)-1-(2-fluorobiphenyl-4-yl)ethyl]-5-{[amino(morpholin-4-yl)methylene]amino}isoxazole]
joint destruction score of the left hind paw, representative individual which showed an average score in the group ([1]; Compound (I) 40 mg/kg and/or methotrexate 0.06 mg/kg, control score 3, maximum 12): 1 | joint destruction score of the right hind paw, representative individual which showed an average score in the group ([1]; Compound (I) 40 mg/kg and/or methotrexate 0.06 mg/kg, control score 10, maximum 12): 5 | joint destruction of right and left hind paws ([1]; Compound (I) 20, 40, 80 mg/kg in combination with methotrexate 0.06 mg/kg, 17 days): dose-dependently and conspicuously enhanced joint destruction suppressing effect of methotrexate | joint destruction of right and left hind paws ([1]; only Compound (I) 20, 40, 80 mg/kg oral once a day 17 days): dose-dependently showed joint destruction suppressing effect | p, left hind paw volume (AUC value), Williams's multiple comparison ([2]; prophylactic model, 20 mg/kg): < 0.05 | hind paw volume / edema volume ([2]; prophylactic model, oral once a day for 21 days, Compound (I) 2.5 to 80 mg/kg, Compound (II) 50 mg/kg, FIGS. 8 and 9): remarkable edema suppressing effect | change of edema volume of hind paw ([2]; therapeutic model, oral once a day for five days from 17th day, Compound (I) 2.5 to 80 mg/kg, Compound (II) 10 to 50 mg/kg, FIGS. 6 and 7): remarkable edema suppressing effect | disease score ([3]; 20, 40, 80 mg/kg oral once a day 40 days, FIG. 13): suppressed the disease score at any dose | Death Rate [3, 6]: 0/10 | Onset Rate [3, 6]: 8/10 | Death Rate [3, 7]: 0/10 | Onset Rate [3, 7]: 7/10 | Onset Rate ([3]; Dose 80 mg/kg oral once a day 40 days): 8/10 | Death Rate ([3]; Dose 80 mg/kg oral once a day 40 days, 80 mg/kg): 1 of 10 and 1/10 | onset ratio and volume of left hind paw [4]: very little effect | p, arthritis onset ratio, Fischer's direct probability method with Bonferroni's correction [5, 8]: < 0.05 | p, arthritis score, Shirley-Williams multiple comparison test [5, 8]: < 0.05 | onset of arthritis ([5]; 5 to 80 mg/kg oral once a day 35 days, FIG. 10): dose-dependently suppressed | degree of arthritis ([5]; 5 to 80 mg/kg oral once a day 35 days, FIG. 11): slight
